Patent US5236927A, “Anti-cancer quinazoline derivatives” (National Research Development Corporation, priority 1985, dated 1993)
Read-outs that look alike come from different tables or passages of the source. Values belong to the molecule of their own block, whether it stands above or below them.

Tests used:
[1] = target: T1, Thymidylate synthetase (TS) (Mus musculus, UniProt P07607); assay: Thymidylate synthetase (TS) inhibition, 3H release assay; type: biochemical; conditions: for TS IRP (inverse relative potency, I50 test compound/I50 CB3717): relative to CB3717
T1 construct: A 50,000 g supernatant was prepared from a TS over-producing (45-fold) L1210 cell line; endogenous in cells; host or cells: L1210 (TS over-producing subline, 45-fold), 50,000 g supernatant
T1 sequence (P07607 whole entry): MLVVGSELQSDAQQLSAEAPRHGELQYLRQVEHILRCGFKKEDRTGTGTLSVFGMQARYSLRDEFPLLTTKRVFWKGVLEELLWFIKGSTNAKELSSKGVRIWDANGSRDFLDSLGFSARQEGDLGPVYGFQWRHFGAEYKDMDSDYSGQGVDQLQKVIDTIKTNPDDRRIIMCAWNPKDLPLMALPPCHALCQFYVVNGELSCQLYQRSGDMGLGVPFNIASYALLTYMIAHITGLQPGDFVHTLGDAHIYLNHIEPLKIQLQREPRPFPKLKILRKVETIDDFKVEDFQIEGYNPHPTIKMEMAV
Experimental: Each compound was dissolved in 0.15M NaHCO3. Thymidylate synthetase was assayed by a ^3 H release method. A 50,000 g supernatant was prepared from a TS over-producing (45-fold) L1210 cell line that was developed in this Institute. The preparation buffer was 0.05M potassium phosphate/0.01M 2-mercaptoethanol, pH 7.4. […] The reaction mixture contained a total of 25 umoles of phosphate. Incubation time was for 1 hour at 37° C.
The results are tabulated below (Table 5). The I50 was defined as the inhibitor concentration necessary to reduce the activity of TS by 50%.

L1210/C15 cells = assay: L1210/C15 cell culture growth inhibition (overproduces TS 45-fold); type: cell-based
Experimental: Cell counts after 48 hours of incubation were obtained by Coulter counting.

L1210 cells [2] = assay: L1210 cell culture growth inhibition; type: cell-based; conditions: Mus musculus, 48 hours, read-out: L1210 ID50
Experimental: (§1) Cells in the log phase of growth were diluted to about 5×10^4 /ml and duplicate 5ml aliquots were added to 50 ml tissue culture flasks containing the appropriate additions (diluted in RPMI and sterilised by Millipore filtration). Cell counts after 48 hours of incubation were obtained by Coulter counting.

[3] = test system: de novo thymidylate synthesis in L1210 cells; assay: Incorporation of 3H dUrd into acid-precipitable material in L1210 cells; type: cell-based
Experimental: L1210 cells were used at a concentration of 10^5 /ml. Incubation at 37° C. was in complete RPMI tissue culture medium plus or minus drugs for the lengths of time indicated on the graphs. After this time ^3 H dUrd was added at a concentration of 2 uCi/ml (about 0.2 uM). Three 1 ml aliquots were removed after 20 minutes, placed on ice and mixed with 1 ml of ice-cold phosphate buffered saline (PBS). Precipitation onto glass-fibre discs was performed by trichloroacetic acid washing followed by PBS. […] This is an indirect measurement of de novo thymidylate synthesis in whole cells. […] These concentrations are 10 times the ID50 values.

[4] = rat, in vivo; for concentration: iv, 100 mg/kg
Experimental: (§3) During and after the infusion blood and bile samples were collected. Four hours after the experiment the rats were sacrificed and the urine collected from the bladder and the liver and kidneys removed.
(§4) Samples of plasma were also analysed for alanine transaminase.

[5] = Urinary and faecal elimination in the mouse; type: in vivo; conditions: ip, 100 mg/kg i.p., 0-48 h
[6] = Comparative pharmacokinetics in the mouse (plasma, liver, kidney levels); type: in vivo; conditions: for concentration at 3 h / concentration at 6 h: mouse, plasma, ip, read-out: Plasma quinazoline conc.
Experimental: 3 Hours and 6 hours after administration groups of three mice at each dose level were sacrificed by exsanguination via cardiac puncture. Plasma was prepared and the livers and kidneys excised and weighed.

L1210 cells [7] = conditions: grown in vitro; cited from earlier work
[8] = cited from earlier work
L1210 tumour [9] = assay: Treatment of L1210 tumour-bearing mice; type: in vivo, mouse
Experimental: (§2) The L1210 tumour is carried routinely in DBA2 mice at the Institute of Cancer Research (L1210/CBRI). For experiments 5×10^4 cells were implanted i.p. into male C57Bl×DBA2 F1 hybrid mice 3 days prior to treatment. […] The control group consisted of 9 mice and treated groups 6 or 7 mice.

L1210 cells [10] = conditions: cited from earlier work
L1210 tumour [11] = conditions: grown in vivo; cited from earlier work
L1210 cells [12] = assay: Reversal of L1210 toxicity by co-incubation with thymidine; type: cell-based; conditions: compound 50 uM + 10 uM thymidine
Experimental: as §1

[13] = Toxicity and weight loss in treated L1210 tumour-bearing mice; type: in vivo, mouse; conditions: 200 mg/kg, data not included
Experimental: as §2

[14] = mouse; cited from earlier work
in vivo = conditions: rat, iv, 100 mg/kg, Plasma levels
Experimental: as §3, §4

[15] = man, cited from earlier work
alanine transaminase = assay: Comparative hepatotoxicity in the mouse (plasma alanine transaminase); type: in vivo
Experimental: […]. Plasma was prepared and the livers and kidneys excised and weighed.
Samples of plasma were also analysed for the enzyme alanine transaminase, an indicator of hepatotoxicity. […]

[16] = 100 mg/kg i.p., 3 h post-treatment
[17] = 100 mg/kg i.p., 6 h post-treatment
[18] = 300 mg/kg i.p., 3 h post-treatment
[19] = 300 mg/kg i.p., 6 h post-treatment

Compound: C#CCN(Cc1ccc2nc[nH]c(=O)c2c1)c1ccc(C(=O)N[C@@H](CCC(=O)O)C(=O)O)s1 [CB3866, N-(5-(N-((3,4-dihydro-4-oxo-6-quinazolinyl)methyl)prop-2-ynylamino)thien-2-oyl)-L-glutamic acid]
- IC50 ([1]; TS from TS over-producing L1210 line, 200 uM (±)-L-5,10-CH2FH4, 1 hour at 37° C, read-out: TS I50): 1700 nM
- TS IRP (inverse relative potency, I50 test compound/I50 CB3717) [1]: 85

Compound: CN(Cc1cnc2nc(N)nc(N)c2n1)c1ccc(C(=O)N[C@@H](CCC(=O)O)C(=O)O)cc1 [methotrexate]
- resistance of L1210/C15 cells (L1210/C15 cells): not resistant

Compound: Cc1c(CNc2ccc(C(=O)N[C@@H](CCC(=O)O)C(=O)O)cc2)ccc2nc(N)nc(N)c12 [CB3703, 5CH35,8-dideazaaminopterin]
- resistance of L1210/C15 cells (L1210/C15 cells): not resistant

Compound: C#CCN(Cc1ccc2nc(N)nc(O)c2c1)c1ccc(C(=O)N[C@@H](CCC(=O)O)C(=O)O)cc1 [CB3717, N-(4-(N-((2-amino-4-hydroxy-6-quinazolyl)methyl)prop-2-ynylamino)benzoyl)-L-glutamic acid, reference compound]
- clearance from the plasma (in words) [4]: cleared less rapidly
- concentration ([4]; 0.5 h): 447 µM
- concentration ([4]; 1 h): 878 µM
- dose excreted at 48 h ([5]; faeces, read-out: Faecal excretion of the parent compound): 26 ± 7%
- dose excreted at 48 h ([5]; urine, read-out: Urinary excretion of the parent compound): 15 ± 3%
- L1210/C15 ID50 (L1210/C15 cells; 48 hours, at 100 uM): no inhibition
- Kidney quinazoline level [6, 16]: 13 ± 2 % dose administered
- Liver quinazoline level [6, 16]: 32 ± 4 % dose administered
- Kidney quinazoline level [6, 17]: 20 ± 8 % dose administered
- Liver quinazoline level [6, 17]: 11 ± 2 % dose administered
- Kidney quinazoline level [6, 18]: 6 ± 1 % dose administered
- Liver quinazoline level [6, 18]: 22 ± 8 % dose administered
- Kidney quinazoline level [6, 19]: 16 ± 1 % dose administered
- Liver quinazoline level [6, 19]: 14 ± 6 % dose administered
- detection in plasma, liver and kidneys ([6]; mice, 3 and 6 hours after i.p. dose, for CB3804 except plasma 3 h at 500 mg/kg): readily detected
- concentration at 3 h [6, 16]: 134 ± 34 µM
- concentration at 6 h [6, 17]: 59 ± 38 µM
- concentration at 3 h [6, 18]: 214 ± 55 µM
- concentration at 6 h [6, 19]: 362 ± 32 µM
- activity against L1210 cells in vitro (L1210 cells [7]): active against L1210 cells
- solubility at acid pH [8]: poor solubility
- "cures" (survived >100 days) (L1210 tumour [9]; 50 mg/kg i.p. daily ×5): about 70%
- "cures" (L1210 tumour [9]; 100 mg/kg (the optimal dose), many previous experiments): 80-100%
- activity at 50 µM ([3]; Mus musculus, L1210, 10 min, 50 uM, by about 10 minutes): < 20%
- effect of thymidine on cytotoxic effect (L1210 cells [10]): prevented in both cases by thymidine
- activity against L1210 cells in vivo (L1210 tumour [11]): active against L1210 cells
- Cell count at 48 hours as % control (L1210 cells [12]): 103 % control
- weight loss [13]: about 10%
- mortality ([13]; mouse, in vivo, ip, read-out: death (of the animals)): ~50%
- kidney toxicity: plasma urea [14]: rise in plasma urea
- liver toxicity: alanine transaminase [14]: transient rise in alanine transaminase
- concentration at 0.5 h (in vivo): 412 µM
- concentration at 1 h (in vivo): 908 µM
- hepatic toxicity [15]: apparently non-dose-related (although not life-threatening) hepatic toxicity
- liver toxicity: alanine transaminase [15]: transient rise in alanine transaminase
- responses noted during Phase I/II clinical studies ([15]; particularly breast and ovary): Several minor and partial responses
- Plasma alanine transaminase level (alanine transaminase; [16]): 225 ± 146 U/L
- Plasma alanine transaminase level (alanine transaminase; [17]): 273 ± 106 U/L
- Plasma alanine transaminase level (alanine transaminase; [18]): 86 ± 61 U/L
- Plasma alanine transaminase level (alanine transaminase; [19]): 973 ± 178 U/L
- Levels of alanine transaminase (in words) (alanine transaminase; mice i.p., normal range 5-25U/l): markedly elevated

Further lines, with some results ahead:

- TS IRP (inverse relative potency, I50 test compound/I50 CB3717) [1]: 53
- IC50 (L1210 cells [2]): 1100 nM
Compound: CN(Cc1ccc2nc[nH]c(=O)c2c1)c1ccc(C(=O)N[C@@H](CCC(=O)O)C(=O)O)cc1 [CB3824, N-(4-(N-((3,4-dihydro-4-oxo-6-quinazolinyl)methyl)methylamino)benzoyl)-L-glutamic acid]

- IC50 (L1210 cells [2]): 5000 nM
Compound: Nc1nc2ccc(CNc3ccc(C(=O)N[C@@H](CCC(=O)O)C(=O)O)cc3)cc2c(=O)[nH]1 [CB3705, 5,8-dideazafolic acid]
- 3H dUrd incorporation ([3]; 10 times the ID50 concentration): did not produce rapid suppression
- 3H dUrd incorporation ([3]; over 2 hours at the ID50 concentration (5 uM)): did not significantly effect

- TS IRP (inverse relative potency, I50 test compound/I50 CB3717) [1]: 26
- IC50 (L1210 cells [2]): 2600 nM
Compound: CCN(Cc1ccc2nc[nH]c(=O)c2c1)c1ccc(C(=O)N[C@@H](CCC(=O)O)C(=O)O)cc1 [CB3822, N-(4-(N-((3,4-dihydro-4-oxo-6-quinazolinyl)methyl)ethylamino)benzoyl)-L-glutamic acid]

- TS IRP (inverse relative potency, I50 test compound/I50 CB3717) [1]: 1136
- IC50 (L1210 cells [2]): 700 nM
Compound: O=C(O)CC[C@H](NC(=O)c1ccc(NCc2ccc3nc[nH]c(=O)c3c2)cc1)C(=O)O [CB3816, N-(4-(((3,4-dihydro-4-oxo-6-quinazolinyl)methyl)amino)benzoyl)-L-glutamic acid]

- TS IRP (inverse relative potency, I50 test compound/I50 CB3717) [1]: 56
- IC50 (L1210 cells [2]): 1700 nM
Compound: C=CCN(Cc1ccc2nc[nH]c(=O)c2c1)c1ccc(C(=O)N[C@@H](CCC(=O)O)C(=O)O)cc1 [CB3826, N-(4-(N-((3,4-dihydro-4-oxo-6-quinazolinyl)methyl)prop-2-enylamino)benzoyl)-L-glutamic acid]
